According to PubChem BioAssay (NCI):
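The compound was tested at five concentrations on cells cultured in 96-well plates, with a 48-hour exposure period. The concentration for full growth arrest is given as TGI.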

Legend:
Test in all cases: inhibition of tumour cell growth, NCI panel, 48 h
SF-539 CNS = tested on: SF-539 CNS
CAKI-1 renal = tested on: CAKI-1 renal
SK-MEL-2 melanoma = tested on: SK-MEL-2 melanoma
786-0 renal = tested on: 786-0 renal
A549 NSCLC = tested on: A549 NSCLC
IGROV1 ovarian = tested on: IGROV1 ovarian
SW-620 colon = tested on: SW-620 colon
LOX IMVI melanoma = tested on: LOX IMVI melanoma
M14 melanoma = tested on: M14 melanoma
SK-OV-3 ovarian = tested on: SK-OV-3 ovarian
UACC-62 melanoma = tested on: UACC-62 melanoma
SF-295 CNS = tested on: SF-295 CNS
MOLT-4 leukemia = tested on: MOLT-4 leukemia
KM20L2 colon = tested on: KM20L2 colon
HCT-116 colon = tested on: HCT-116 colon
EKVX NSCLC = tested on: EKVX NSCLC
K-562 leukemia = tested on: K-562 leukemia
OVCAR-3 ovarian = tested on: OVCAR-3 ovarian
NCI-H522 lung = tested on: NCI-H522 lung
A498 renal = tested on: A498 renal
SK-MEL-28 melanoma = tested on: SK-MEL-28 melanoma
RXF-631 renal = tested on: RXF-631 renal
XF 498 CNS = tested on: XF 498 CNS
UACC-257 melanoma = tested on: UACC-257 melanoma
KM12 colon = tested on: KM12 colon
SNB-75 CNS = tested on: SNB-75 CNS
OVCAR-4 ovarian = tested on: OVCAR-4 ovarian
M19-MEL melanoma = tested on: M19-MEL melanoma
DMS 273 small cell lung = tested on: DMS 273 small cell lung
SN12C renal = tested on: SN12C renal
NCI-H23 lung = tested on: NCI-H23 lung
HOP-62 NSCLC = tested on: HOP-62 NSCLC
HT29 colon = tested on: HT29 colon
HCT-15 colon = tested on: HCT-15 colon
LXFL 529 NSCLC = tested on: LXFL 529 NSCLC
RPMI-8226 leukemia = tested on: RPMI-8226 leukemia
U251 CNS = tested on: U251 CNS
SNB-78 CNS = tested on: SNB-78 CNS
NCI-H226 lung = tested on: NCI-H226 lung
ACHN renal = tested on: ACHN renal
SNB-19 CNS = tested on: SNB-19 CNS
SR leukemia = tested on: SR leukemia
DMS 114 small cell lung = tested on: DMS 114 small cell lung
OVCAR-5 ovarian = tested on: OVCAR-5 ovarian
OVCAR-8 ovarian = tested on: OVCAR-8 ovarian
UO-31 renal = tested on: UO-31 renal
DLD-1 colon = tested on: DLD-1 colon
SK-MEL-5 melanoma = tested on: SK-MEL-5 melanoma
COLO 205 colon = tested on: COLO 205 colon
TK-10 renal = tested on: TK-10 renal
SF-268 CNS = tested on: SF-268 CNS
HCC-2998 colon = tested on: HCC-2998 colon
RXF 393 renal = tested on: RXF 393 renal
NCI-H460 lung = tested on: NCI-H460 lung
HOP-18 NSCLC = tested on: HOP-18 NSCLC
CCRF-CEM leukemia = tested on: CCRF-CEM leukemia
MALME-3M melanoma = tested on: MALME-3M melanoma
HOP-92 NSCLC = tested on: HOP-92 NSCLC
HL-60(TB) leukemia = tested on: HL-60(TB) leukemia

COc1ccccc1NC(=O)CC(=O)NNCC(=O)Nc1nnc(-c2ccccc2)o1
TGI (SF-539 CNS): > 100 µM
TGI (CAKI-1 renal): > 100 µM
TGI (SK-MEL-2 melanoma): > 100 µM
TGI (786-0 renal): > 100 µM
TGI (A549 NSCLC): > 100 µM
TGI (IGROV1 ovarian): > 100 µM
TGI (SW-620 colon): > 100 µM
TGI (LOX IMVI melanoma): > 100 µM
TGI (M14 melanoma): > 100 µM
TGI (SK-OV-3 ovarian): > 100 µM
TGI (UACC-62 melanoma): > 100 µM
TGI (SF-295 CNS): > 100 µM
TGI (MOLT-4 leukemia): > 100 µM
TGI (KM20L2 colon): > 100 µM
TGI (HCT-116 colon): > 100 µM
TGI (EKVX NSCLC): > 100 µM
TGI (K-562 leukemia): > 100 µM
TGI (OVCAR-3 ovarian): > 100 µM
TGI (NCI-H522 lung): > 100 µM
TGI (A498 renal): > 100 µM
TGI (SK-MEL-28 melanoma): > 100 µM
TGI (RXF-631 renal): > 100 µM
TGI (XF 498 CNS): > 100 µM
TGI (UACC-257 melanoma): > 100 µM
TGI (KM12 colon): > 100 µM
TGI (SNB-75 CNS): > 100 µM
TGI (OVCAR-4 ovarian): > 100 µM
TGI (M19-MEL melanoma): > 100 µM
TGI (DMS 273 small cell lung): > 100 µM
TGI (SN12C renal): > 100 µM
TGI (NCI-H23 lung): > 100 µM
TGI (HOP-62 NSCLC): > 100 µM
TGI (HT29 colon): > 100 µM
TGI (HCT-15 colon): > 100 µM
TGI (LXFL 529 NSCLC): > 100 µM
TGI (RPMI-8226 leukemia): > 100 µM
TGI (U251 CNS): > 100 µM
TGI (SNB-78 CNS): > 100 µM
TGI (NCI-H226 lung): > 100 µM
TGI (ACHN renal): > 100 µM
TGI (SNB-19 CNS): > 100 µM
TGI (SR leukemia): > 100 µM
TGI (DMS 114 small cell lung): > 100 µM
TGI (OVCAR-5 ovarian): > 100 µM
TGI (OVCAR-8 ovarian): > 100 µM
TGI (UO-31 renal): > 100 µM
TGI (DLD-1 colon): > 100 µM
TGI (SK-MEL-5 melanoma): > 100 µM
TGI (COLO 205 colon): > 100 µM
TGI (TK-10 renal): > 100 µM
TGI (SF-268 CNS): > 100 µM
TGI (HCC-2998 colon): > 100 µM

CCOC(=O)[C@H]1Nc2ccc(Cl)cc2[C@H]2c3ccccc3O[C@H]21
TGI (SF-539 CNS): > 100 µM
TGI (CAKI-1 renal): > 100 µM
TGI (SK-MEL-2 melanoma): > 100 µM
TGI (786-0 renal): > 100 µM
TGI (A549 NSCLC): > 100 µM
TGI (IGROV1 ovarian): > 100 µM
TGI (SW-620 colon): > 100 µM
TGI (LOX IMVI melanoma): > 100 µM
TGI (M14 melanoma): > 100 µM
TGI (UACC-62 melanoma): > 100 µM
TGI (RXF 393 renal): > 100 µM
TGI (SF-295 CNS): > 100 µM
TGI (MOLT-4 leukemia): > 100 µM
TGI (NCI-H460 lung): > 100 µM
TGI (KM20L2 colon): > 100 µM
TGI (HCT-116 colon): > 100 µM
TGI (EKVX NSCLC): > 100 µM
TGI (K-562 leukemia): > 100 µM
TGI (OVCAR-3 ovarian): > 100 µM
TGI (NCI-H522 lung): > 100 µM
TGI (SK-MEL-28 melanoma): > 100 µM
TGI (RXF-631 renal): > 100 µM
TGI (XF 498 CNS): > 100 µM
TGI (UACC-257 melanoma): > 100 µM
TGI (KM12 colon): > 100 µM
TGI (SNB-75 CNS): > 100 µM
TGI (OVCAR-4 ovarian): > 100 µM
TGI (M19-MEL melanoma): > 100 µM
TGI (DMS 273 small cell lung): > 100 µM
TGI (SN12C renal): > 100 µM
TGI (HOP-62 NSCLC): > 100 µM
TGI (HT29 colon): > 100 µM
TGI (HCT-15 colon): > 100 µM
TGI (LXFL 529 NSCLC): > 100 µM
TGI (RPMI-8226 leukemia): > 100 µM
TGI (U251 CNS): > 100 µM
TGI (SNB-78 CNS): > 100 µM
TGI (NCI-H226 lung): > 100 µM
TGI (ACHN renal): > 100 µM
TGI (SNB-19 CNS): > 100 µM
TGI (SR leukemia): > 100 µM
TGI (DMS 114 small cell lung): > 100 µM
TGI (OVCAR-5 ovarian): > 100 µM
TGI (OVCAR-8 ovarian): > 100 µM
TGI (UO-31 renal): > 100 µM
TGI (DLD-1 colon): > 100 µM
TGI (SK-MEL-5 melanoma): > 100 µM
TGI (HOP-18 NSCLC): > 100 µM
TGI (COLO 205 colon): > 100 µM
TGI (TK-10 renal): > 100 µM
TGI (SF-268 CNS): > 100 µM
TGI (HCC-2998 colon): > 100 µM

Nc1nc(SCCC/C=C/I)nc2c1ncn2C1OC(CO)C(O)C1O (configuration not stated)
TGI (SF-539 CNS): > 202 µM
TGI (CAKI-1 renal): > 202 µM
TGI (SK-MEL-2 melanoma): > 202 µM
TGI (786-0 renal): > 202 µM
TGI (A549 NSCLC): > 202 µM
TGI (IGROV1 ovarian): > 202 µM
TGI (SW-620 colon): > 202 µM
TGI (LOX IMVI melanoma): > 202 µM
TGI (M14 melanoma): > 202 µM
TGI (SK-OV-3 ovarian): > 202 µM
TGI (UACC-62 melanoma): > 202 µM
TGI (SF-295 CNS): > 202 µM
TGI (MOLT-4 leukemia): > 202 µM
TGI (NCI-H460 lung): > 202 µM
TGI (KM20L2 colon): > 202 µM
TGI (HCT-116 colon): > 202 µM
TGI (K-562 leukemia): > 202 µM
TGI (OVCAR-3 ovarian): > 202 µM
TGI (NCI-H522 lung): > 202 µM
TGI (A498 renal): > 202 µM
TGI (SK-MEL-28 melanoma): > 202 µM
TGI (XF 498 CNS): > 202 µM
TGI (UACC-257 melanoma): > 202 µM
TGI (KM12 colon): > 202 µM
TGI (SNB-75 CNS): > 202 µM
TGI (OVCAR-4 ovarian): > 202 µM
TGI (CCRF-CEM leukemia): > 202 µM
TGI (M19-MEL melanoma): > 202 µM
TGI (DMS 273 small cell lung): > 202 µM
TGI (SN12C renal): > 202 µM
TGI (NCI-H23 lung): > 202 µM
TGI (HOP-62 NSCLC): > 202 µM
TGI (HT29 colon): > 202 µM
TGI (HCT-15 colon): > 202 µM
TGI (RPMI-8226 leukemia): > 202 µM
TGI (U251 CNS): > 202 µM
TGI (SNB-78 CNS): > 202 µM
TGI (NCI-H226 lung): > 202 µM
TGI (ACHN renal): > 202 µM
TGI (SNB-19 CNS): > 202 µM
TGI (SR leukemia): > 202 µM
TGI (DMS 114 small cell lung): > 202 µM
TGI (OVCAR-5 ovarian): > 202 µM
TGI (OVCAR-8 ovarian): > 202 µM
TGI (UO-31 renal): > 202 µM
TGI (MALME-3M melanoma): > 202 µM
TGI (DLD-1 colon): > 202 µM
TGI (HOP-92 NSCLC): > 202 µM
TGI (HL-60(TB) leukemia): > 202 µM
TGI (SK-MEL-5 melanoma): > 202 µM
TGI (HOP-18 NSCLC): > 202 µM
TGI (COLO 205 colon): > 202 µM
TGI (TK-10 renal): > 202 µM
TGI (SF-268 CNS): > 202 µM

Clc1cc(Cl)cc(Nc2nc3ccccc3nc2-c2cccs2)c1
TGI (SF-539 CNS): > 100 µM
TGI (SK-MEL-2 melanoma): > 100 µM
TGI (786-0 renal): 31.7 µM
TGI (A549 NSCLC): > 100 µM
TGI (SW-620 colon): > 100 µM
TGI (LOX IMVI melanoma): > 100 µM
TGI (SK-OV-3 ovarian): 71.1 µM
TGI (RXF 393 renal): 39.9 µM
TGI (SF-295 CNS): 45.8 µM
TGI (MOLT-4 leukemia): > 100 µM
TGI (NCI-H460 lung): 41.6 µM
TGI (HCT-116 colon): 72 µM
TGI (EKVX NSCLC): > 100 µM
TGI (OVCAR-3 ovarian): 72 µM
TGI (RXF-631 renal): 31.8 µM
TGI (XF 498 CNS): 73.2 µM
TGI (UACC-257 melanoma): 60.4 µM
TGI (SNB-75 CNS): > 100 µM
TGI (CCRF-CEM leukemia): > 100 µM
TGI (M19-MEL melanoma): 88.2 µM
TGI (DMS 273 small cell lung): 27.2 µM
TGI (SN12C renal): > 100 µM
TGI (NCI-H23 lung): > 100 µM
TGI (HOP-62 NSCLC): > 100 µM
TGI (HT29 colon): 26.9 µM
TGI (HCT-15 colon): > 100 µM
TGI (LXFL 529 NSCLC): > 100 µM
TGI (RPMI-8226 leukemia): > 100 µM
TGI (SNB-78 CNS): > 100 µM
TGI (NCI-H226 lung): > 100 µM
TGI (ACHN renal): 60.3 µM
TGI (SR leukemia): > 100 µM
TGI (OVCAR-5 ovarian): > 100 µM
TGI (OVCAR-8 ovarian): 27 µM
TGI (UO-31 renal): > 100 µM
TGI (MALME-3M melanoma): > 100 µM
TGI (DLD-1 colon): > 100 µM
TGI (HOP-92 NSCLC): 38.1 µM
TGI (HL-60(TB) leukemia): > 100 µM
TGI (HOP-18 NSCLC): 88.8 µM
TGI (COLO 205 colon): 32.9 µM
TGI (TK-10 renal): 75.6 µM
TGI (SF-268 CNS): > 100 µM
TGI (HCC-2998 colon): > 100 µM
